Among the data in patent US6492520B1, “Substituted pyrido-or pyrimido-containing 6,6- or 6,7-bicyclic derivatives” (Pfizer Inc, priority 1996, dated 2002) are melting point values, retold here.

Structures are written as SMILES.

In general, melting point refers to the temperature, or range, at which the solid turns liquid.

Turning to `CCC(CC)N1CCNc2c1cc(C)nc2Oc1c(C)cc(C)cc1C` [Example 4, 1-(1-Ethyl-propyl)-7-methyl-5-(2,4,6-trimethyl-phenoxy)-1,2,3,4-tetrahydro-pyrido[3,4-b]pyrazine], the melting point lay within 138 to 140 °C.
